The source of these data is patent US10342790B2, “Use of ceranib-2 in the treatment of lung cancer” (ANADOLU UNIVERSITESI REKTORLUGU, priority 2017, dated 2019).

Molecules are shown by their SMILES.

Series [1] concerns A549 human lung adeno-carcinoma cells. The series can be described thus: MTT cyto-toxicity test, A549 cells. Format: cell-based. The settings on record: 24 hours incubation, read-out: IC50 concentration in A549 lung cancer cells. As to the method: A549 human lung adeno-carcinoma cells have been implanted to the cell culture plates with 96 wells such that there are 2×10^3 cells per well. The cells implanted to the plate have been incubated at 37° C. and in a medium of 5% carbon dioxide. A549 cells have been incubated for 24 hours in the concentration range of 5-65 μM with synthesized ceranib-2. At the end of the duration, 20 μL MTT dye (5 mg/mL) has been added to each well and it has been incubated for 2 hours more at 37° C. After the incubation, the liquid part in each well on the plate is discharged and 200 μL DMSO has been added for dissolving the formazan salts formed by viable cells and it has been waited for 10 minutes at room temperature. The color change occurring has been read at wavelength of 570 nm on the ELx808-IU (Bio-Tek, USA) plate reader. The experiment has been repeated 3 times. Separate viability values have been calculated according to the control group for each dose.
Background: Formazan colour is commonly taken as a measure of viable cells.

For series [2] the following is noted: value mentioned in the sources; read-out: IC50 concentration in cell-based experiments (in the sources); cited from earlier work.
The test system of a further series is 5RP7 cells. Kind of series: IC50 in 5RP7 cells (cytotoxicity). The settings on record: read-out: IC50 concentration in 5RP7 cells. Format: cell-based.
Series [3] concerns MCF-7 human breast cancer cells. Kind of series: IC50 in MCF-7 cells (cytotoxicity). Format: cell-based. Particulars: read-out: IC50 concentration in MCF-7 human breast cancer cells.
A further series relates to MCF-7 cell line. The series can be described thus: Confocal microscopy of MCF-7 cells. Format: cell-based, human. The settings on record: MCF-7 cells treated for 24 hours, acridine orange and phalloidine. From the text:
In FIG. 1, the confocal microscopy images are provided belonging to the study made on the MCF-7 cell line. In the control cells, a tight and normal cell and cell nucleus structure are seen (FIG. 1A).
FIG. 1: Confocal electron transmission microscope image of MCF-7 cells painted with acridine orange and phalloidine.

A further series deals with synergistic tumor model. The settings on record: 20-50 mg/kg; cited from earlier work.
The subject of the next series is MCF-7 cells. Kind of series: Electron micrographs of MCF-7 cells. The series is classed as cell-based, human. The settings on record: MCF-7 cells treated for 24 hours. From the text: In FIG. 2, electron micrographs of the MCF-7 cells are seen.
FIG. 2: Electron transmission micrographs of MCF-7 cells.

Series [4] deals with A549 lung cancer cell line. Kind of series: Microscopy of structural changes in A549 cells. Format: cell-based, human. Particulars: A549 cells treated for 24 hours. From the text: In FIG. 3, the confocal microscope images of the study made on A549 type cells which is a lung cancer cell line are given.
FIG. 3: Electron transmission microscope images showing the structural changes in A549 cells.

In another series the test system is NIH/3T3 cells. Kind of series: IC50 in NIH/3T3 cells (cytotoxicity). The series is classed as cell-based. The settings on record: read-out: IC50 concentration in NIH/3T3 cells.

Regarding `COc1ccc(C=CC(=O)c2c(-c3ccccc3)c3ccccc3[nH]c2=O)cc1` [ceranib-2, 3-[3-(4-methoxyphenyl)-1-oxo-2-prpen-1-yl]-4-phenyl-2(1H)-quinolinone], the IC50 was 14 µM in series [1]; about 28 µM in series [2]; 3 µM in the series with 5RP7 cells; 13 µM in series [3]; 5 µM in the series with NIH/3T3 cells. In the series with MCF-7 cell line, the “Cell morphology, confocal microscopy (FIG. 1)” value was “condensation is observed in the chromatin, holes are observed in the cell structure, shrunken cell nucleus is observed and fragmentizing cells are observed”. Besides, in the series on synergistic tumor model, the Toxicity in vivo result is listed as “without leading to toxicity”. Further, the Tumor growth entry with synergistic tumor model was “inhibits tumor growth”. In the series on MCF-7 cells, the “Cell ultrastructure, electron micrographs (FIG. 2)” value was “the nucleus membrane is lost and the mitochondria is deformed”. The “Structural changes in cells, microscopy (FIG. 3)” value in [4] was “the cell nucleus is fragmentized, the cell shape is transformed from oval to round and deformations begin in the cell membrane, lipid drops are formed inside the cell, DNA fragmentizing occurs and holes occur inside the cell”.
